Read-outs that look alike come from different tables or passages of the source.
Experiments:
PC3-ML-Luc cells = experiment: Combination and survival study, PC3-ML-Luc model; type: in vivo; conditions: PC3-ML-Luc in athymic nude mice, day 14, IVMT-Rx-4 30 mg/kg and/or Docetaxel 5 mg/kg 3X a week for two weeks
Procedure: Both syngeneic (C57BL/6) and athymic nude mice were used for survival studies. Tumor cells (RM1-BM-Luc or PC3-ML-Luc) were injected intracardially in a cohort of 40 animals. […] In the combination groups, both regimens were administered 3X a week for two-weeks at the same dose as a single therapy. Animals were imaged periodically and maintained until euthanization was required.
Fig. 5. […] A and B) RM1-BM-Luc (A) or PC3-ML-Luc (B) cells were implanted I.C. in C57BL/6 and athymic nude mice, respectively. […] BLI images were used to detect bone metastases (the percentage incidence of bone metastases in animals was calculated at a single time point, day 14). Values are presented at the bottom panel of the respective group (red, number of animals positive for metastasis and black, total number of experimental animals). C and D) Animals were kept until mandated euthanasia based on IACUC guidelines, considered as disease associated death. The Kaplan–Meier survival curves were generated using GraphPad in both models as described in (A) and (B), respectively. E and F) Log-rank test was performed and values between different experimental groups are presented.

YAP = experiment: Western blot, PDGF-AA activated HS5 cells: YAP; type: cell-based, human; conditions: PDGF-AA 10 ng/ML, 25 μM, 24 hrs
CYP2E1 = target: T1, CYP2E1 (Homo sapiens, UniProt P05181); experiment: Drug-substrate based CYP inhibition, 2E1; type: in vitro ADME; conditions: human liver microsomes
T1 construct: in the presence of human liver microsomes; from tissue; host or cells: human liver microsomes
T1 sequence (P05181 whole entry): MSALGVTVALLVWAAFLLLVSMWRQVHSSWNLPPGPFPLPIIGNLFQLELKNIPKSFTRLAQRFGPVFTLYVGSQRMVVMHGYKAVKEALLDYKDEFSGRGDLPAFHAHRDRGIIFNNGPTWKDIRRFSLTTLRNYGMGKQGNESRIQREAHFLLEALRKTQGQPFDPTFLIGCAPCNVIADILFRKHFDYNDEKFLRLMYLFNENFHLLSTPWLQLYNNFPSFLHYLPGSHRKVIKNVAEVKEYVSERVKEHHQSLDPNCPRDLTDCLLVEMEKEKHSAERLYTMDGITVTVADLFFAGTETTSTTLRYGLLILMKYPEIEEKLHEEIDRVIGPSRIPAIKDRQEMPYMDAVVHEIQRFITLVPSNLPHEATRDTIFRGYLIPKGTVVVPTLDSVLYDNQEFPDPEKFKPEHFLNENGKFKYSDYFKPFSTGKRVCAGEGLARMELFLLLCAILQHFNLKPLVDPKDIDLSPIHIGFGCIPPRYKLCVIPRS
Procedure: IVMT-Rx-4 was incubated with selective probe substrates of each CYP isoform in the presence of human liver microsomes. The formation of metabolite was quantified using LC-MS/MS methods. The extent of inhibition was assessed by calculating the remaining enzyme activity and percent inhibition based on analyte-to-internal standard area ratios, using the following equations:
Area Ratio = Peak AreaAnalyte / Peak AreaInternal Standard
Remaining Activity (%) = Area Ratiotest compound / Area Ratiovehicle ×100
Inhibition (%) = 100 ̶ Remaining Activity (%)

PXR = target: T2, PXR (Homo sapiens, UniProt O75469); experiment: PXR assay using DPX2 cells; type: cell-based
T2 construct: expressed in transfected cells; host or cells: DPX2 cells
T2 sequence (O75469 1-434): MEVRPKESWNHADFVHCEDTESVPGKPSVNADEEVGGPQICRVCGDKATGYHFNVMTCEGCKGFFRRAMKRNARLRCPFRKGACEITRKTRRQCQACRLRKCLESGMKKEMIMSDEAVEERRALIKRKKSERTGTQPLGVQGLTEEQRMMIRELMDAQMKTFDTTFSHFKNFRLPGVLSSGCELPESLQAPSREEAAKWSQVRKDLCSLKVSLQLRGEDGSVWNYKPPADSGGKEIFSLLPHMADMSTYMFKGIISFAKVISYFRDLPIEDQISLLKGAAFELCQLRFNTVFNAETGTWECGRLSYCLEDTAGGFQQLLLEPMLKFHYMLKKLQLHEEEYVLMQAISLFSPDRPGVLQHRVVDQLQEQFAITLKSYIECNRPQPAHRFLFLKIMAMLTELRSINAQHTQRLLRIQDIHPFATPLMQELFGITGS
Procedure: DPX2 cells were initially cultured in T-75 flasks and maintained at 37°C in a humidified incubator with 5% CO2 and 95% relative humidity. Cells were allowed to reach 70-80% confluence prior to subculture. Next, cells were transferred to a culture plate and incubated for an additional 24 hours to allow for attachment and recovery prior to treatment. […] Cell viability and luciferase activity were measured using the CellTiter-Fluor™ Cell Viability Assay and One-GloTM Luciferase Assay System, respectively. Luciferase activity was normalized to viable number and fold activation of PXR was calculated using the following equation: […]

PDGF-AA [1] = experiment: PDGF-AA protein in conditioned media by ELISA; type: cell-based, human; conditions: conditioned media of PC3-ML, ARCaP-M and C4–2B cells
Procedure: (§1) Human and mouse specific CXCL5, PDGF-AA ELISA kits were obtained from R&D Systems, USA. All ELISAs were performed using the manufacturer’s protocol.
(§2) Fig. 2. […] NF-κB activity was measured by absorbance at 450 nm (n = 3 ± SD; * p < 0.05). […] C) PDGF-AA protein levels were determined in the three PC cell line-derived conditioned media by ELISA. In both panels: n = 3 ± SD; * p < 0.05.

CXCL5 = experiment: Secreted CXCL5 by ELISA in HS5 conditioned media; type: cell-based, human; conditions: PDGF-AA activated HS5 cells, 24 hrs
Procedure: as §1
Fig. 3. […] CXCL5 mRNA expression was measured by qRT-PCR. […] Secreted CXCL5 in CM was measured by ELISA (n = 3 ± SD; * p < 0.05). […] CXCL5 mRNA expression was measured by qRT-PCR (n = 3 ± SD; * p < 0.05).

[2] = Pharmacokinetic studies, single dose IV, PO, SC, IP; type: in vivo, CD1 mice
Procedure: CD1 mice were randomly grouped to 4 groups (n=3 per group). […] Further, 20-µL blood samples were collected from a capillary in the retro-orbital plexus at pre-determined time intervals, placed into heparinized tubes, and immediately centrifuged (2500 × g, 15 min, 4 °C). The plasma was separated and kept frozen at −80 °C until analysis.
Then the samples were vortexed for 30 s. After centrifugation at 4000 rpm for 15 min at 4 °C, the supernatant was diluted 3 times with water.5 µL of the diluted supernatant was injected into the Shimadzu LC/MS/MS system with a Phenomenex Kinetex C18 column (2.1 mm × 50 mm, 5 µm, 100 Å ). The samples were chromatographed using a gradient mobile phase consisting of 95% water (0.1% formic acid)– 95% acetonitrile (0.1% formic acid), delivered at a flow rate of 0.6 mL/min.

[3] = Visible toxicity in animals; conditions: in vivo
PDGF-AA [4] = experiment: PDGF-AA mRNA expression by qRT-PCR in PC cells; type: cell-based, human; conditions: 24 hrs
Procedure: Total RNA was extracted from cells using miRNeasy kits (Qiagen), and cDNA was prepared as described previously. Gene specific TaqMan Probes were obtained from Applied Bio system, Thermo-Fisher, USA. qRT-PCR was performed using an ABI Quant Studio real-time PCR.
as §2

Cc1cc(NC(=O)CCc2nnc(-c3ccccc3)o2)c(C)cc1N [IVMT-Rx-4]
bone metastases, Incident/Total number tested (PC3-ML-Luc cells): 1/8 | phosphorylation of YAP at ser127 (YAP): promoted | IC50 (CYP2E1): ~8 µM | PXR assay (PXR): No induction | PDGF-AA protein level (PDGF-AA [1]): decreased PDGF-AA | CXCL5 protein level (CXCL5): significantly decreased | Tmax ([2]; CD1, mouse, plasma, 10 mg/kg, all non-intravenous routes): ≤ 30 min | half-life ([2]; CD1, mouse, plasma, ip, 10 mg/kg, IP 10 mg/kg, read-out: Plasma half-life (converted)): 61.2 min | half-life ([2]; CD1, mouse, plasma, iv, 3 mg/kg, IV 3 mg/kg, mean of 3 mice, read-out: T1/2 (plasma half-life) (converted)): 27 min | half-life ([2]; CD1, mouse, plasma, po, 10 mg/kg, PO 10 mg/kg, read-out: Plasma half-life (converted)): 82.2 min | half-life ([2]; CD1, mouse, plasma, sc, 10 mg/kg, SC 10 mg/kg, read-out: Plasma half-life (converted)): 41.4 min | Maximum plasma concentration (Cmax) ([2]; IP 10 mg/kg): 1012 ng/mL | time to reach Cmax (Tmax) ([2]; IP 10 mg/kg): 15 min | time after which plasma levels became undetectable ([2]; IV 3 mg/kg): 4 h | Maximum plasma concentration (Cmax) ([2]; PO 10 mg/kg): 2047 ng/mL | time to reach Cmax (Tmax) ([2]; PO 10 mg/kg): 15 min | time after which plasma levels became undetectable ([2]; PO, SC and IP routes, 10 mg/kg): 8 h | Maximum plasma concentration (Cmax) ([2]; SC 10 mg/kg): 1017 ng/mL | time to reach Cmax (Tmax) ([2]; SC 10 mg/kg): 30 min | visible toxicity in animals [3]: without provoking any visible toxicity | PDGF-AA levels in mda-9 knockout clones (PDGF-AA [4]; PC3-ML mda-9 KO and ARCaP-M mda-9 KO): did not further reduce PDGF-AA levels | PDGF-AA mRNA level (PDGF-AA [4]; PC3-ML, ARCaP-M and C4–2B cells, 25 μM or 50 μM): decreased PDGF-AA

Reference: publication PMC13401508 (Pharmacological research, 2026)
